According to ChEMBL document CHEMBL5113502, “Accommodation of ring C expanded deoxyvasicinone in the HDAC inhibitory pharmacophore culminates into a tractable anti-lung cancer agent and pH-responsive nanocarrier” (Eur J Med Chem, 2022):

Experiments:
Format in all cases: functional, cell-based
A549 = experiment: Cytotoxicity against human A549 cells assessed as cell viability after 48 hrs by MTT assay; conditions: A549, 48 h
NCI-H727 = experiment: Cytotoxicity against human NCI-H727 cells assessed as cell viability after 48 hrs by MTT assay; conditions: NCI-H727, 48 h
HOP-62 = experiment: Cytotoxicity against human HOP-62 cells assessed as cell viability after 48 hrs by MTT assay; conditions: HOP-62, 48 h

Row | SMILES | IC50 (A549) [µM] | IC50 (NCI-H727) [µM] | IC50 (HOP-62) [µM]
1 | O=C(CCCCCCC(=O)Nc1ccc2nc3n(c(=O)c2c1)CCCC3)NO | 16 | – | –
2 | O=C(/C=C/c1cccc(S(=O)(=O)Nc2ccc3nc4n(c(=O)c3c2)CCCCC4)c1)NO | 3 | – | –
3 | O=C(CCCCCCCCC(=O)Nc1ccc2nc3n(c(=O)c2c1)CCCCC3)NO | 11 | – | –
4 | O=C(NO)c1ccc(C(=O)Nc2ccc3nc4n(c(=O)c3c2)CCCCC4)cc1 | 9 | – | –
5 | O=C(CCCCCC(=O)Nc1ccc2nc3n(c(=O)c2c1)CCCCC3)NO | 11 | – | –
6 | O=C(/C=C/c1ccc(CNc2ccc3nc4n(c(=O)c3c2)CCCC4)cc1)NO | 1.56 | 1.34 | 1.71
7 | O=C(CCCCCCCC(=O)Nc1ccc2nc3n(c(=O)c2c1)CCCCC3)NO | 12 | – | –
8 | O=C(CCCCCCC(=O)Nc1ccc2nc3n(c(=O)c2c1)CCCCCC3)NO | 22 | – | –
9 | O=C(/C=C/c1ccc(CNc2ccc3nc4n(c(=O)c3c2)CCC4)cc1)NO | 1.21 | 1.11 | 1.78
10 | O=C(CCCCCCC(=O)Nc1ccc2nc3n(c(=O)c2c1)CCCCC3)NO | 14 | – | –
11 | O=C(NO)c1ccc(CNc2ccc3nc4n(c(=O)c3c2)CCCCC4)cc1 | 10 | – | –
12 | O=C(/C=C/c1ccc(CNc2ccc3nc4n(c(=O)c3c2)CCCCCC4)cc1)NO | 1.89 | 1.78 | 1.95
13 | O=C(CCCCCCC(=O)Nc1ccc2nc3n(c(=O)c2c1)CCC3)NO | 17 | – | –
14 | O=c1c2ccccc2nc2n1CCCCC2 | 6 | – | –
